Assay results taken from patent publication US20250345284A1, “LIPID NANOPARTICLE (LNP) COMPOSITIONS AND METHODS OF USE THEREOF” (The Trustees Of The University of Pennsylvania, priority 2021, published 2025).

Columns and labels:
[1] = Z-average diameter and polydispersity index by dynamic light scattering (Zetasizer Nano); format: physicochemical; details: LNPs with 12.5%, 25% and 50% substitution of the named hydroxycholesterol
[2] = Stability of 100% hydroxycholesterol substitution LNPs over 28 days; details: 100% substitution of hydroxycholesterol for cholesterol, vs S2
Text: FIG. 8B depicts measurements of z-average diameter, PDI, mRNA concentration, and encapsulation efficiency for S2 LNPs and LNP formulations with 100% cholesterol substitution taken over 28 days to assess LNP stability. […] Error bars denote standard deviation. FIG. 8C depicts the pKa, zeta potential, z-average diameter, and PDI measurements for the exemplary LNPs of the present disclosure. n=3. Error bars denote standard deviation.
Characterization parameters assessed over the 28-day period include z-average diameter, PDI, mRNA concentration, and encapsulation efficiency (Table 3).

Row | SMILES | PDI (in words) [1] | z-average diameter (in words) [1] | stability (all characterization parameters) [2]
1 | CC(C)CCC[C@@H](C)[C@H]1CC[C@H]2[C@@H]3[C@H](O)C=C4C[C@@H](O)CC[C@]4(C)[C@H]3CC[C@]12C [A1, 7α-hydroxycholesterol] | remained within expected ranges | remained within expected ranges | comparable on all parameters on all days to S2
2 | CC(C)CCC[C@@H](C)[C@H]1CC[C@H]2[C@@H]3[C@@H](O)C=C4C[C@@H](O)CC[C@]4(C)[C@H]3CC[C@]12C [A2, 7β-hydroxycholesterol] | remained within expected ranges | remained within expected ranges | comparable on all parameters on all days to S2
3 | CC(C)CCC[C@@H](C)[C@H]1CC[C@H]2[C@@H]3CC=C4C[C@@H](O)CC[C@]4(CO)[C@H]3CC[C@]12C [A3, 19-hydroxycholesterol] | remained within expected ranges | remained within expected ranges | –
4 | CC(C)CCC[C@](C)(O)[C@H]1CC[C@H]2[C@@H]3CC=C4C[C@@H](O)CC[C@]4(C)[C@H]3CC[C@@]21C [B1, 20 (S)-hydroxycholesterol] | remained within expected ranges | remained within expected ranges | comparable on all parameters on all days to S2
5 | CC(C)[C@@H](O)CC[C@@H](C)[C@H]1CC[C@H]2[C@@H]3CC=C4C[C@@H](O)CC[C@]4(C)[C@H]3CC[C@]12C [B2, 24 (S)-hydroxycholesterol] | more polydisperse | increased particle diameters | –
6 | C[C@H](CCCC(C)(C)O)[C@H]1CC[C@H]2[C@@H]3CC=C4C[C@@H](O)CC[C@]4(C)[C@H]3CC[C@]12C [B3, 25-hydroxycholesterol] | more polydisperse | increased particle diameters | –
